Source: US5250700A, “Phenyl pyrazolidinones as bronchodilators and anti-inflammatory agents” (American Home Products Corporation, priority 1992, dated 1993)
pIC50: −log10 of the molar value. Counter-ions that a name gives are not always drawn.

Each compound was assayed on PDE IV (assay: Inhibition of PDE IV isolated from canine tracheal muscle (cAMP metabolism)). Settings: at 10^-5 (concentration unit not given); percentage of the reduction induced by 10 μM rolipram; canine trachealis PDE IV.
Assay type: biochemical
Protocol: The following assay is employed to assess the ability of the compound of the invention to inhibit PDE IV. A solution containing PDE IV is prepared from canine tracheal muscle as follows: The dog is euthanized with an overdose of euthanasia while under anesthesia induced by a 33 mg/kg IV bolus of Nembutal. The trachealis muscle is removed, cleaned of connective tissue, and minced thoroughly. Three to four grams of tissue is then homogenized in Trim-HCl buffer (pH 7.8) using a Polytron. The homogenate is then centrifuged at 25,000×g (4° C.) for 30 minutes. The supernatant is decanted and filtered through four layers of gauze, and applied to a 40 cm×2 cm DEAE-Sepharose column that is equilibrated with Trim-HCl buffer (pH 7.8). The column is then washed with an additional 240 mL of buffer to remove unbound proteins. […] Each fraction is assayed for cAMP- and cGMP- metabolizing PDE activity. Fractions eluting at approximately 0.6 M Na-acetate, and containing CAMP but not CGMP metabolic activity are pooled and used as a PDE stock solution for assaying PDE IV inhibitory activity. […] CI-930 is included as an inhibitor of the cyclic GMP-sensitive, cyclic AMP-selectivePDE (PDE III) that is also present in the PDE IV stock solution when prepared as described above.

| SMILES | inhibition of PDE IV (percentage) |
| --- | --- |
| COc1ccc(C2CC(=O)NN2C(N)=O)cc1OC1CCCC1 (centres unmarked) [Example 5, 5-[3-(Cyclopentyloxy)-4-methoxyphenyl]-3-oxo-1-pyrazolidinecarboxamide] | 39% |
| COC(=O)N1NC(=O)CC1c1ccc(OC)c(OC2CCCC2)c1 (centres unmarked) [Example 6, 5-[3-(Cyclopentyloxy)-4-methoxyphenyl]-3-oxo-1-pyrazolidinecarboxylic acid methyl ester] | 52% |
| COc1ccc(C2CC(=O)NN2CC(=O)O)cc1OC1CCCC1 (centres unmarked) [Example 7] | 39% |
| COc1ccc(C2CC(=O)N(C(=O)Nc3ccccc3)N2C)cc1OC1CCCC1 (centres unmarked) [Example 16, 3-[3-(cyclopentyloxy)-4-methoxyphenyl-2-methyl-5-oxo-N-phenyl-1-pyrazolidinecarboxamide hydrochloride] | 48% |

Same assay, conditions: canine trachealis PDE IV, 1 μM 3H-cAMP, 10 μM CI-930, 30° C., pH 7.8; reduction expressed relative to 10 μM rolipram

| SMILES | pIC50 |
| --- | --- |
| COc1ccc(C2CC(=O)N(C(=O)N[C@@H](C)c3cccc4ccccc34)N2C)cc1OC1CCCC1 (single isomer, unassigned) [13 A] | 7.92 |
| COc1ccc(C2CC(=O)N(C(=O)N[C@@H](C)c3cccc4ccccc34)N2C)cc1OC1CCCC1 (single isomer, unassigned) [13 B] | 7.74 |
| COc1ccc(C2CC(=O)NN2)cc1OC1CCCC1 (centres unmarked) [Example 1, 5-[3-(Cyclopentyloxy)-4-methoxyphenyl]-3-pyrazolidinone] | 6.47 |
| COc1ccc(C2CC(=O)NN2C)cc1OC1CCCC1 (centres unmarked) [Example 2, 5-[3--(Cyclopentyloxy)-4-methoxyphenyl]-1-methyl-3-pyrazolidinone] | 6.17 |
| COc1ccc(C2CC(=O)N(C)N2C)cc1OC1CCCC1 (centres unmarked) [Example 3, 5-[3-(Cyclopentyloxy)-4-methoxyphenyl]-1,2-dimethyl-3-pyrazolidinone, hydriodide] | 6.09 |
| COC(=O)CN1NC(=O)CC1c1ccc(OC)c(OC2CCCC2)c1 (centres unmarked) [Example 4, 5-[3-(Cyclopentyloxy)-4-methoxylphenyl]-3-oxo-1-pyrazolidineacetic acid methyl ester] | 6.36 |
| CNC(=O)N1C(=O)CC(c2ccc(OC)c(OC3CCCC3)c2)N1C (centres unmarked) [Example 9, 3-F3-(Cyclopentyloxy)-4-methoxyphenyl]-2-methyl-5-oxo-N-methyl-1-pyrazolidinecarboxamide, hemihidrate] | 6.34 |
| COc1ccc(-c2cc(=O)[nH]n2C)cc1OC1CCCC1 [Example 10, 5-[3-(cyclopentyloxy)-4-methoxyphenyl]-1,2-dihydro-1-methyl-3H-pyrazol-3-one] | 6.51 |
| COc1ccc(-c2cc(=O)n(C(N)=O)n2C)cc1OC1CCCC1 [Example 11, 3-[3-(cyclopentyloxy)-4-methoxylphenyl]-2.5-dihydro-2-methyl-5-oxo-1H-pyrazole-1-carboxamide] | 6.42 |
| COc1ccc(-c2cc(=O)n(C(=O)NCc3ccccn3)n2C)cc1OC1CCCC1 [Example 12, 3-[3-(cyclopentyloxy)-4-methoxyphenyl]-2.5-dihydro-2-methyl-5-oxo-N-(2-pyridinylmethyl)-1H-pyrazole-1-carboxamide] | 6.38 |
| CCCCNC(=O)N1C(=O)CC(c2ccc(OC)c(OC3CCCC3)c2)N1C (centres unmarked) [Example 14, N-butyl-3-f3-(cyclopentyloxy)-4-methoxyphenyl]-2-methyl-5-oxo-1-pyrazolidinecarboxamide hydrochloride] | 6.59 |
| CCNC(=O)N1C(=O)CC(c2ccc(OC)c(OC3CCCC3)c2)N1C (centres unmarked) [Example 15, 3-[3-(cyclopentyloxy)-4-methoxylphenyl]-N-ethyl-2-methyl-5-oxo-1-pyrazolidinecarboxamide hydrochloride, hydrate] | 7.31 |
| COc1ccc(C2CC(=O)N(C(=O)NCc3ccccc3)N2C)cc1OC1CCCC1 (centres unmarked) [Example 17, 3-[3-(cyclopentyloxy)-4-methoxyphenyl]-2-methyl-5-oxo-N-(phenylmethyl)-1-pyrazolidinecarboxamide hydrochloride] | 7.44 |
| COc1ccc(C2CC(=O)N(C(=O)NC3CCCCC3)N2C)cc1OC1CCCC1 (centres unmarked) [Example 18, N-cyclohexyl-3-[3-(cyclopentyloxy)-4-methoxyphenyl]-2-methyl-5-oxo-1-pyrazolidine carboxamide hydrochloride] | 7.00 |
| COc1ccc(NC(=O)N2C(=O)CC(c3ccc(OC)c(OC4CCCC4)c3)N2C)cc1 (centres unmarked) [Example 19, 3-[3-(cyclopentyloxy)-4-methoxyphenyl]-N-(4-methoxyphenyl)-2-methyl-5-oxo-1-pyrazolidinecarboxamide] | 6.92 |
| COc1ccc(C2CC(=O)N(C(=S)NCc3ccc(F)cc3)N2C)cc1OC1CCCC1 (centres unmarked) [Example 20, 3-[3-(cyclopentyloxy)-4-methoxyphenyl]-N-[(4-fluorophenyl)-methyl]-2-methyl-5-oxo-1-pyrazolidinecarbothioamide] | 7.19 |
| COc1ccc(CNC(=S)N2C(=O)CC(c3ccc(OC)c(OC4CCCC4)c3)N2C)cc1 (centres unmarked) [Example 21, 3-[3-(cyclopentyloxy)-4-methoxyphenyl]-N-[(4-methoxyphenyl)methyl]-2-methyl-5-oxo-1-pyrazolidinecarbothioamide] | 7.28 |
| COc1ccc(C2CC(=O)N(C(=O)Nc3ccc(F)cc3)N2C)cc1OC1CCCC1 (centres unmarked) [Example 22] | 6.68 |

Continued, values first:

| pIC50 | SMILES |
| --- | --- |
| 6.49 | COc1ccc(C2CC(=O)N(C(N)=O)N2Cc2ccccc2)cc1OC1CCCC1 (centres unmarked) [Example 23] |
| 7.07 | COc1ccc(C2CC(=O)N(C(=O)NCc3cccnc3)N2C)cc1OC1CCCC1 (centres unmarked) [Example 24, 3-[3-(cyclopentyloxy)-4-methoxyphenyl]-2-methyl-5-oxo-N-(3-pyridinylmethyl)-1-pyrazolidine carboxamide] |
| 5.82 | COc1ccc(C2CC(=O)N(Cc3cccnc3)N2C)cc1OC1CCCC1 (centres unmarked) [Example 25, 5-[3-(cyclopentyloxy)-4-methoxyphenyl]-1-methyl-2-(3-pyridinylmethyl)-3-pyrazolidinone hydrochloride dehydrate] |
| 6.77 | CCCCCCCN1C(=O)CC(c2ccc(OC)c(OC3CCCC3)c2)N1C (centres unmarked) [Example 26, 5-[3-(cyclopentyloxy)-4-methoxyphenyl-2-heptyl-1-methyl-3-pirazolidinone hydrochloride] |
| 6.03 | COc1ccc(C2CC(=O)N(Cc3cncc(Br)c3)N2C)cc1OC1CCCC1 (centres unmarked) [Example 27, 2-[(5-bromo-3-pyridinyl)methyl]-5-[3-(cyclopentyloxy)-4-methoxyphenyl]-1-methyl-3-pyrazolidinone hydrochloride] |
| 6.46 | COc1ccc(C2CC(=O)N(C(=O)c3cncc(Br)c3)N2C)cc1OC1CCCC1 (centres unmarked) [Example 28, 5-[3-(cyclopentyloxy)-4-methoxyphenyl]-1-methyl-2-(5-bromo-3-pyridinylcarbonyl)-3-pyrazolidinone] |
| 6.80 | COc1ccc(C2CC(=O)N(CCCc3cccnc3)N2C)cc1OC1CCCC1 (centres unmarked) [Example 29, 5-[3(cyclopentyloxy)-4-methoxyphenyl]-1-methyl-2-[3-(3-pyridinyl)propyl]-3-pyrazolidinone quarter dichloromethane] |
| 7.30 | COc1ccc(C2CC(=O)N(C/C=C/c3cncc(Br)c3)N2C)cc1OC1CCCC1 (centres unmarked) [Example 30, 2-[(E)-3-(5-bromo-3-pyridinyl)-2-propenyl]-5-[3-(cyclopentyloxy)-4-methoxyphenyl]-1-methyl-3-pyrazolidinone hemi(dichloromethane)] |
| 6.01 | COc1ccc(C2CC(=O)N(C(C)=O)N2C)cc1OC1CCCC1 (centres unmarked) [Example 31, 2-acetyl-5-[3-(cyclopentyloxy)-4-methoxyphentyl]-1-methyl-3-pyrazolidinone hydrochloride] |
| 6.47 | COc1ccc(C2CC(=O)N(C(=O)c3cccnc3)N2C)cc1OC1CCCC1 (centres unmarked) [Example 32, 5-[3-(cyclolpentyloxy)-4-methoxyphenyl]-1-methyl-2-(3-pyridinylcarbonyl)-3-pirazolidinone hemihydrate] |
| 7.09 | COc1ccc(C2CC(=O)N(C(=O)/C=C/c3cncc(Br)c3)N2C)cc1OC1CCCC1 (centres unmarked) [Example 33] |
| 7.24 | COc1ccc(C2CC(=O)NN2Cc2ccccc2)cc1OC1CCCC1 (centres unmarked) [Example 34, 5-[3-(cyclopentyloxy)-4-methoxyphenyl]-1-(phenylmethyl)-3-pyrazolidinone] |
| 5.39 | CCN1NC(=O)CC1c1ccc(OC)c(OC2CCCC2)c1 (centres unmarked) [Example 35, 5-[3-(cyclopentyloxy)-4-methoxyphenyl]-1-ethyl-3-pyrazolidinone] |
| 5.25 | CCN(CC)CCNC(=O)N1C(=O)CC(c2ccc(OC)c(OC3CCCC3)c2)N1C (centres unmarked) [Example 36, 3-(3-Cyclopentyloxy-4-methoxyphenyl)-2-methyl-5-oxo-pyrazolidine-1-carboxylic acid 2-(diethyl-amino) ethylamide] |
| 5.49 | COc1ccc(C2CC(=O)N(C(=O)NN3CCOCC3)N2C)cc1OC1CCCC1 (centres unmarked) [Example 37, 3-(3-Cyclolpentyloxy-4-methoxyphenyl)-2-methyl-5-oxo-pyrazolidine-1-carboxylic acid morilholin-4-ylamide] |
| 6.25 | COc1ccc(C2CC(=O)N(C(=O)NCCCN3CCCC3=O)N2C)cc1OC1CCCC1 (centres unmarked) [Example 38, 3-(3-Cyclopentyloxy-4-methoxyphenyl)-2-methyl-5-oxo-pyrazolidine-1-carboxylic acid 3-(2-oxo-pyrrolidin-1-yl) propylamide] |
